One may read the pIC50 as −log10 of the IC50, conventionally taken in molar units.

pIC50: −log10 of the molar value.

We go through 36 compounds from US7902373B2 (Pfizer Inc, priority 2006, dated 2011).

Chain of human recombinant H-PGDS (O60760 whole entry): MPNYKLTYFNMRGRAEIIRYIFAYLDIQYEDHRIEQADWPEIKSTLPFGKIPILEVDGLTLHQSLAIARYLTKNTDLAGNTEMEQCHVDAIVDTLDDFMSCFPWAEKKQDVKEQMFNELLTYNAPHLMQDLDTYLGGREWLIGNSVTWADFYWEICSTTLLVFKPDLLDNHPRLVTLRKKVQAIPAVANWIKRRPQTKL

This test concerns the target human recombinant H-PGDS (Homo sapiens, UniProt O60760). The test is described as follows: Fluorescence intensity h-PGDS TBA enzyme assay. Type of test: biochemical. To be noted: Examples up to 622 (and 3a, 3b).
Turning to `Cc1ccc(-n2cccn2)c(CN2CCC(NC(=O)c3ccc(-c4cccc(F)c4)nc3)CC2)c1` [Example 438, 6-(3-Fluorophenyl)-N-{1-[5-methyl-2-(1H-pyrazol-1-yl)benzyl]piperidin-4-yl}nicotinamide], the negative logarithm of the IC50 (pIC50) was 9.38.
The result for `O=C(NC1CCN(Cc2c[nH]nc2-c2cccc(F)c2)CC1)c1ccc(-c2cccc(F)c2)nc1` [Example 439, 6-(3-Fluorophenyl)-N-(1-{[3-(3-fluorophenyl)-1H-pyrazol-4-yl]methyl}piperidin-4-yl)nicotinamide] reads 9.12; that for `COCCc1ncc(CN2CCC(NC(=O)c3ccc(-c4cccc(F)c4)nc3)CC2)cn1` [Example 440, 6-(3-Fluorophenyl)-N-(1-{[2-(2-methoxyethyl)pyrimidin-5-yl]methyl}piperidin-4-yl)nicotinamide], 8.71.
Consider `CCCc1ncc(CN2CCC(NC(=O)c3ccc(-c4cccc(F)c4)nc3)CC2)cn1` [Example 441, 6-(3-Fluorophenyl)-N-{1-[(2-propylpyrimidin-5-yl)methyl]piperidin-4-yl}nicotinamide], for which the pIC50 was 8.59.
The result for `CCc1ncc(CN2CCC(NC(=O)c3ccc(-c4cccc(F)c4)nc3)CC2)cn1` [Example 442, N-{1-[(2-Ethylpyrimidin-5-yl)methyl]piperidin-4-yl}-6-(3-fluorophenyl)nicotinamide] reads 8.56; that for `Cc1ncc(CN2CCC(NC(=O)c3ccc(-c4cccc(F)c4)nc3)CC2)cn1` [Example 443, 6-(3-Fluorophenyl)-N-{1-[(2-methylpyrimidin-5-yl)methyl]piperidin-4-yl}nicotinamide], 8.80.
To `Cc1nc(C)c(CN2CCC(NC(=O)c3ccc(-c4cccc(F)c4)nc3)CC2)nc1C` [Example 444, 6-(3-Fluorophenyl)-N-{1-[(3,5,6-trimethylpyrazin-2-yl)methyl]piperidin-4-yl}nicotinamide] belongs 9.87; to `Cc1nc2ccc(Cl)cn2c1CN1CCC(NC(=O)c2ccc(-c3cccc(F)c3)nc2)CC1` [Example 445, N-{1-[(6-Chloro-2-methylimidazo[1,2-a]pyridin-3-yl)methyl]piperidin-4-yl}-6-(3-fluorophenyl)nicotinamide], 8.37.
The result for `Cc1ncc(CN2CCC(NC(=O)c3ccc(-c4cccc(F)c4)nc3)CC2)s1` [Example 446, 6-(3-Fluorophenyl)-N-{1-[(2-methyl-1,3-thiazol-5-yl)methyl]piperidin-4-yl}nicotinamide] reads 9.05; that for `COCn1c(CN2CCC(NC(=O)c3ccc(-c4cccc(F)c4)nc3)CC2)nc2ccccc21` [Example 447, 6-(3-Fluorophenyl)-N-(1-{[1-(methoxymethyl)-1H-benzimidazol-2-yl]methyl}piperidin-4-yl)nicotinamide], 8.96.
In the case of `O=C(NC1CCN(Cc2nc3cccc4c3n2CCC4)CC1)c1ccc(-c2cccc(F)c2)nc1` [Example 448, N-[1-(5,6-Dihydro-4H-imidazo[4,51-ij]quinolin-2-ylmethyl)piperidin-4-yl]-6-(3-fluorophenyl)nicotinamide], the pIC50 is 8.61.
The result for `Cn1c(CN2CCC(NC(=O)c3ccc(-c4cccc(F)c4)nc3)CC2)nc2cc(F)c(F)cc21` [Example 449, N-{1-[(5,6-Difluoro-1-methyl-1H-benzimidazol-2-yl)methyl]piperidin-4-yl}-6-(3-fluorophenyl)nicotinamide] reads 8.55.
The result for `O=C(NC1CCN(Cc2ccnc3cccnc23)CC1)c1ccc(-c2cccc(F)c2)nc1` [Example 450, 6-(3-Fluorophenyl)-N-[1-(1,5-naphthyridin-4-ylmethyl)piperidin-4-yl]nicotinamide] reads 8.69; that for `O=C(NC1CCN(Cc2ccnc3nccnc23)CC1)c1ccc(-c2cccc(F)c2)nc1` [Example 451, 6-(3-Fluorophenyl)-N-[1-(pyrido[2,3-b]pyrazin-8-ylmethyl)piperidin-4-yl]nicotinamide], 9.06.
To `O=C(NC1CCN(Cc2ccnc3ncccc23)CC1)c1ccc(-c2cccc(F)c2)nc1` [Example 452, 6-(3-Fluorophenyl)-N-[1-(1,8-naphthyridin-4-ylmethyl)piperidin-4-yl]nicotinamide] belongs 9.14.
In the case of `O=C(NC1CCN(Cc2ccc(CN3CCOCC3)cc2)CC1)c1ccc(-c2cccc(F)c2)nc1` [Example 453, 6-(3-Fluorophenyl)-N-{1-[4-(morpholin-4-ylmethyl)benzyl]piperidin-4-yl}nicotinamide], the negative logarithm of the IC50 (pIC50) was 8.85.
On to `Cc1nnc(-c2ccc(CN3CCC(NC(=O)c4ccc(-c5cccc(F)c5)nc4)CC3)cc2)o1` [Example 454, 6-(3-Fluorophenyl)-N-{1-[4-(5-methyl-1,3,4-oxadiazol-2-yl)benzyl]piperidin-4-yl}nicotinamide], for which the pIC50 is 9.09.
For `Cc1cnc(CN2CCC(NC(=O)c3ccc(-c4cccc(F)c4)nc3)CC2)cn1` [Example 455, 6-(3-Fluorophenyl)-N-{1-[(5-methylpyrazin-2-yl)methyl]piperidin-4-yl}nicotinamide], the pIC50 was 8.87.
Consider `O=C(NC1CCN(Cc2nc3cccc4c3n2CC=C4)CC1)c1ccc(-c2cccc(F)c2)nc1` [Example 456, 6-(3-Fluorophenyl)-N-[1-(4H-imidazo[4,51-ij]quinolin-2-ylmethyl)piperidin-4-yl]nicotinamide], for which the pIC50 is 8.69.
To `CCOC(=O)c1csc(CN2CCC(NC(=O)c3ccc(-c4cccc(F)c4)nc3)CC2)n1` [Example 457, Ethyl 2-{[4-({[6-(3-fluorophenyl)pyridin-3-yl]carbonyl}amino)piperidin-1-yl]methyl}-1,3-thiazole-4-carboxylate] belongs 9.12; to `C[C@@H]1Oc2ccc(CN3CCC(NC(=O)c4ccc(-c5cccc(F)c5)nc4)CC3)cc2[C@H]1C(=O)O` [Example 458, (2S,3R)-5-{[4-({[6-(3-Fluorophenyl)pyridin-3-yl]carbonyl}amino)piperidin-1-yl]methyl}-2-methyl-2,3-dihydro-1-benzofuran-3-carboxylic acid], 8.75.
As to `CCOc1ncccc1CN1CCC(NC(=O)c2ccc(-c3cccc(F)c3)nc2)CC1` [Example 459, N-{1-[(2-Ethoxypyridin-3-yl)methyl]piperidin-4-yl}-6-(3-fluorophenyl)nicotinamide], the negative logarithm of the IC50 (pIC50) is 9.14.
For the compound `COc1ncccc1CN1CCC(NC(=O)c2ccc(-c3cccc(F)c3)nc2)CC1` [Example 460, 6-(3-Fluorophenyl)-N-{1-[(2-methoxypyridin-3-yl)methyl]piperidin-4-yl}nicotinamide], the pIC50 is 8.89.
The result for `CC(C)Oc1ncccc1CN1CCC(NC(=O)c2ccc(-c3cccc(F)c3)nc2)CC1` [Example 461, 6-(3-Fluorophenyl)-N-{1-[(2-isopropoxypyridin-3-yl)methyl]piperidin-4-yl}nicotinamide] reads 9.62; that for `O=C(NC1CCN(Cc2cccnc2OCC2CC2)CC1)c1ccc(-c2cccc(F)c2)nc1` [Example 462, N-(1-{[2-(Cyclopropylmethoxy)pyridin-3-yl]methyl}piperidin-4-yl)-6-(3-fluorophenyl)nicotinamide], 9.58.
To `O=C(NC1CCN(Cc2cccc(CF)n2)CC1)c1ccc(-c2cccc(F)c2)nc1` [Example 463, N-(1-{[6-(Fluoromethyl)pyridin-2-yl]methyl}piperidin-4-yl)-6-(3-fluorophenyl)nicotinamide] belongs 9.41.
On to `CC(C)(O)c1cc(CN2CCC(NC(=O)c3ccc(-c4cccc(F)c4)nc3)CC2)ccn1` [Example 464, 6-(3-Fluorophenyl)-N-(1-{[2-(1-hydroxy-1-methylethyl)pyridin-4-yl]methyl}piperidin-4-yl)nicotinamide], for which the pIC50 is 8.99.
As to `O=C(NC1CCN(Cc2ccc3c(n2)NCCC3)CC1)c1ccc(-c2cccc(F)c2)nc1` [Example 465, 6-(3-Fluorophenyl)-N-[1-(5,6,7,8-tetrahydro-18-naphthyridin-2-ylmethyl)piperidin-4-yl]nicotinamide], the pIC50 is 9.06.
`CCOC(=O)Cn1cc(CN2CCC(NC(=O)c3ccc(-c4cccc(F)c4)nc3)CC2)cn1` [Example 466, Ethyl (4-{[4-({[6-(3-fluorophenyl)pyridin-3-yl]carbonyl}amino)piperidin-1-yl]methyl}-1H-pyrazol-1-yl)acetate]: the pIC50 was 8.83.
To `COc1cc(CN2CCC(NC(=O)c3ccc(-c4cccc(F)c4)nc3)CC2)c(F)cc1Cl` [Example 467, N-[1-(4-Chloro-2-fluoro-5-methoxybenzyl)piperidin-4-yl]-6-(3-fluorophenyl)nicotinamide] belongs 9.59.
The result for `O=C(NC1CCN(Cc2ccc(=O)[nH]n2)CC1)c1ccc(-c2cccc(F)c2)nc1` [Example 469, 6-(3-Fluorophenyl)-N-{1-[(6-oxo-1,6-dihydropyridazin-3-yl)methyl]piperidin-4-yl}nicotinamide] reads 9.07; that for `CC(C)c1nnc2ccc(CN3CCC(NC(=O)c4ccc(-c5cccc(F)c5)nc4)CC3)cn12` [Example 470, 6-(3-Fluorophenyl)-N-{1-[(3-isopropyl[1,2,4]triazolo[4,3-a]pyridin-6-yl)methyl]piperidin-4-yl}nicotinamide], 8.38; that for `COc1ccc2nccc(CN3CCC(NC(=O)c4ccc(-c5cccc(F)c5)nc4)CC3)c2c1` [Example 471, 6-(3-Fluorophenyl)-N-{1-[(6-methoxyquinolin-4-yl)methyl]piperidin-4-yl}nicotinamide], 8.57.
As to `CC(C)(O)c1ccc(CN2CCC(NC(=O)c3ccc(-c4cccc(F)c4)nc3)CC2)cn1` [Example 472, 6-(3-Fluorophenyl)-N-(1-{[6-(1-hydroxy-1-methylethyl)pyridin-3-yl]methyl}piperidin-4-yl)nicotinamide], the pIC50 was 9.31.
To `Cn1ccc(-c2ccc(CN3CCC(NC(=O)c4ccc(-c5cccc(F)c5)nc4)CC3)cc2)n1` [Example 473, 6-(3-Fluorophenyl)-N-{1-[4-(1-methyl-1H-pyrazol-3-yl)benzyl]piperidin-4-yl}nicotinamide] belongs 8.63.
The result for `Cn1nccc1-c1ccc(CN2CCC(NC(=O)c3ccc(-c4cccc(F)c4)nc3)CC2)cc1` [Example 474, 6-(3-Fluorophenyl)-N-{1-[4-(1-methyl-1H-pyrazol-5-yl)benzyl]piperidin-4-yl}nicotinamide] reads 8.84.
